Measurements taken from PMC5063381, “Characterization of the Neisseria meningitidis Helicase RecG” (PLoS ONE, 2016).

Assays:
RecGNm = target: T1, RecGNm (Neisseria meningitidis, UniProt Q9JY17); experiment: TLC ATPase assay with [gamma-32P]ATP; assay type: biochemical; details: 100 nM DNA cofactor (branched DNA), 2 mM MgCl2, pH 7.5, 37 °C; labelled compound as tracer
T1 construct: gene recG; ORF in pET28b(+) (pGTB1, NdeI/XhoI), N-terminal 6xHis-tag, expressed in E. coli ER2566; Ni-NTA and Superdex 75
T1 sequence (Q9JY17 1-680): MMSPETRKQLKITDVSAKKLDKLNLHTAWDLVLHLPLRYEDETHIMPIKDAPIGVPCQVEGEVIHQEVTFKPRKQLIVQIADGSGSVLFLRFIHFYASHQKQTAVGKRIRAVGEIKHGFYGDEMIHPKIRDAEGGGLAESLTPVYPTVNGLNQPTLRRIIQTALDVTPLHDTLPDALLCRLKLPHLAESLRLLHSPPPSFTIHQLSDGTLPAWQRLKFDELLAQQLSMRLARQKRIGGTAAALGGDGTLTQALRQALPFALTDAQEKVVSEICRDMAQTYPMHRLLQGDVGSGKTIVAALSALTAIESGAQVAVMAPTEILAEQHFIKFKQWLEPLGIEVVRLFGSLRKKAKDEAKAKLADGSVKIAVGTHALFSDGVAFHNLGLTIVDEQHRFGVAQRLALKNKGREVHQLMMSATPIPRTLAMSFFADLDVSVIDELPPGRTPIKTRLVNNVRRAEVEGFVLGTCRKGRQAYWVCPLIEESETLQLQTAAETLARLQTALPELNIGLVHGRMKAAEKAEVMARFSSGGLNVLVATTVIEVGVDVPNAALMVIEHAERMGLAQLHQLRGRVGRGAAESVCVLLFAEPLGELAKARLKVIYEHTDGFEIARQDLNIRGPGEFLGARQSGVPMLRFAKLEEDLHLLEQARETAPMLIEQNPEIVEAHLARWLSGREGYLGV

[1] = target: T2, Neisseria meningitidis DNA repair/recombination helicase RecG (Neisseria meningitidis strain MC58, UniProt Q9JY17 1-680); experiment: MST; 21 nM RED-NHS labelled SSBNm, RecGNm titrated; 20 mM HEPES pH 7.5, 300 mM NaCl, 0.05% Tween 20, 0.1% Pluronic F-127, 0.1% PEG 8000, 2 mM DTT; 22°C, 40% MST power; details: both partners purified
T2 construct: RecG helicase of Neisseria meningitidis strain MC58; the ORF was amplified from genomic DNA and cloned into pET28b(+) between XhoI and NdeI (plasmid pGTB1); also called RecGNm; Nm RecG; source: E. coli ER2566, purified (Ni-NTA, gel filtration on Superdex 75)
T2 sequence (looked up): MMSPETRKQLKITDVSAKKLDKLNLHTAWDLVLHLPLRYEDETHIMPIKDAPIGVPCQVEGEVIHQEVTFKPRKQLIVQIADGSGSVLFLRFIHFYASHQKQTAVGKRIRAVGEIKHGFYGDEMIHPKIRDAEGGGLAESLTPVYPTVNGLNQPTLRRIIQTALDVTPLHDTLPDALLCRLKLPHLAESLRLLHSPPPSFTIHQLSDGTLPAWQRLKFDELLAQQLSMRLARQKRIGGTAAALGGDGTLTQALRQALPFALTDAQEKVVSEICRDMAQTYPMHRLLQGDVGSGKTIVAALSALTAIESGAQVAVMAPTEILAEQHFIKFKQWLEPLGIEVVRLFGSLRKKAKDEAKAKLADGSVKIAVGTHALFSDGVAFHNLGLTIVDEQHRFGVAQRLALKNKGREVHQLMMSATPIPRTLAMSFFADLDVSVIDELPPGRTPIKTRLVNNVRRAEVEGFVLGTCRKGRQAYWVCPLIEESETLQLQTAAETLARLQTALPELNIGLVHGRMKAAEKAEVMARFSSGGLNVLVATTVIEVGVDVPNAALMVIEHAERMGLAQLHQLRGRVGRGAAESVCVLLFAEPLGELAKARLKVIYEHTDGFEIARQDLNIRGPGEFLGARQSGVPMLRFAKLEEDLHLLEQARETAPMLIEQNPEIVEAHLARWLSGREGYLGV

Nc1ncnc2c1ncn2[C@@H]1O[C@H](COP(=O)(O)OP(=O)(O)OP(=O)(O)O)[C@@H](O)[C@H]1O [ATP]
% ATP hydrolysis (RecGNm): RecGNm displayed comparable capacity of ATP hydrolysis in the presence of different types of branched

B1: Neisseria meningitidis single-stranded DNA-binding protein SSB (natural protein, Neisseria meningitidis strain MC58, UniProt P66848 1-174, looked up)
chain: MSLNKVILIGRLGRDPEVRYMPNGEAVCNFSVATSETWNDRNGQRVERTEWHNITMYRKLAEIAGQYLKKGGLVYLEGRIQSRKYQGKDGIERTAYDIVANEMKMLGGRNENSGGAPYEEGYGQSQEAYQRPAQQSRQPASDAPSHPQEAPAAPRRQPVPAAAPVEDIDDDIPF
modifications: Monolith NT Protein Labeling Kit RED-NHS dye, degree of labelling 0.65 (in the MST only)
notes: It was unlabelled in the gel filtration and RED-NHS labelled in the MST; also called SSBNm; source: plasmid pEH1 (pQE-30 harboring ssb from Nm MC58)
Kd [1]: 558 ± 139 nM
